Laboratory results taken from ChEMBL document CHEMBL5050848, “Kif18a inhibitors” (2020).

Target: T1, Kinesin-like protein KIF18A (Homo sapiens, UniProt Q8NI77)
T1 sequence (Q8NI77 whole entry): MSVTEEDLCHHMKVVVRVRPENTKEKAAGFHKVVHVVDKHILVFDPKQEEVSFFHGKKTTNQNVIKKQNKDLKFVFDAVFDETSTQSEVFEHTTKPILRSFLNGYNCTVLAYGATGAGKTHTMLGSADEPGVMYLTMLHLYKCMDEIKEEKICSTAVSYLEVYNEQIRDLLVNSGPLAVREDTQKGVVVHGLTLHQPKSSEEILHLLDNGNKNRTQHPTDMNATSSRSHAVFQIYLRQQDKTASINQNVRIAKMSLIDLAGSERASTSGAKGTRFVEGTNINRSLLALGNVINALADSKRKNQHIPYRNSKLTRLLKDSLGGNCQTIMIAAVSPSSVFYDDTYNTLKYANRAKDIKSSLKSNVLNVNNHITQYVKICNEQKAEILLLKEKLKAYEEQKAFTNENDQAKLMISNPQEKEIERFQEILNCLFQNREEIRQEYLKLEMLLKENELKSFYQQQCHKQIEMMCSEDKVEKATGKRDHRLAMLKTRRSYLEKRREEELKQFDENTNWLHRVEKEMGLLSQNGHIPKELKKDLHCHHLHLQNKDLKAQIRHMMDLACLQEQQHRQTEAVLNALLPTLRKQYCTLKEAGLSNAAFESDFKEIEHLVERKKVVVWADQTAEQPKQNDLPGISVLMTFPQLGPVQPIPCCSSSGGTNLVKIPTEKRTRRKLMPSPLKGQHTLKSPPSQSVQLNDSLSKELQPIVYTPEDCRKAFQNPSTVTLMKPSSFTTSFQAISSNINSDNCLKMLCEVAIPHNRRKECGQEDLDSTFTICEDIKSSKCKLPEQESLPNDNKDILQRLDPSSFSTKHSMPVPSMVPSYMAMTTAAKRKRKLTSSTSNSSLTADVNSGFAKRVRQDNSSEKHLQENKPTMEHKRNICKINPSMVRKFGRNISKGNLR
Assay: Inhibition of recombinant His-tagged human KIF18A (1 to 467 residues) expressed in baculovirus expression system assessed as inhibition of microtubule-stimulated ATPase activity preincubated for 15 mins followed by ATP addition and further incubated for 15 mins and measured after 40 mins by ADP-Glo reagent based assay

IC50 | Structure (SMILES)
67 nM | C[C@@H]1CN(c2cccc(NC(=O)c3ccc(NS(=O)(=O)CC(F)F)cc3N3CCC4(CC3)CC4)n2)CCO1
24 nM | Cc1cc(NC(=O)c2ccc(NS(=O)(=O)CCO)cc2N2CCC3(CC2)CC3)nc(N2CC(F)(F)C2)c1

Structure (SMILES) | IC50
O=C(Nc1cccc(OC(F)F)n1)c1ccc(NS(=O)(=O)CCO)cc1N1CCC2(CC1)CC2 | 45 nM
